Measurements reported in paper PMC8945919 (Biomolecules, 2022).
Entries after “also recorded” stand apart in the source; their conditions may differ. One block for each substance: values may come before it. Where no end group is shown, it is not given here.

How the values were obtained:
trypsin [1] = molecular target: T1, trypsin (Bos taurus, UniProt P00760); test: Trypsin digestion of RAD16-I followed by MALDI-TOF; format: in vitro ADME; set-up: key to Peak Presence in MALDI Spectra: peak presence (+); absence (−); details: for Peak Presence in MALDI Spectra: fragments expected after trypsin digestion of RAD16-I, peptide 100 µM in water (50 µM elsewhere in the source), trypsin 1000:1 peptide:enzyme molar ratio, 0-30 min, untreated and thermally treated (90 °C, 10 min) samples, duplicate
T1 sequence (P00760 24-246): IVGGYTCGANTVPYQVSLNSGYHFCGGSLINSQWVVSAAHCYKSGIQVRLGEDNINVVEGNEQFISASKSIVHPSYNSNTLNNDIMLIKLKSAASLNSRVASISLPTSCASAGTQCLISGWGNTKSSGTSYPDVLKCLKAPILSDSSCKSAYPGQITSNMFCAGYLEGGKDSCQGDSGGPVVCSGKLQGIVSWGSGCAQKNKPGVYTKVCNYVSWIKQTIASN
Experimental: Matrix-assisted laser desorption/ionization time of flight (MALDI-TOF) of trypsin-digested peptide samples was performed on a Bruker Ultraflex mass spectrometer, equipped with a pulsed nitrogen laser (337 nm). The peptide RAD16-I was diluted from a stock solution to a final concentration of 100 µM in water. Trypsin was added in a molar ratio 1000:1 (peptide:enzyme). Peptide samples were incubated with trypsin at 37 °C for 0, 1, 5, 10 and 30 min (performed in duplicate), and boiled in order to inactivate trypsin. Samples were prepared by mixing 0.5 µL of the peptide solution with 1 µL of the matrix solution (0.3 mg/mL, α-cyano-4-hydroxy-cinnamic acid in ethanol/acetone 2:1). The mixture was then spotted on an anchor-chip target (Bruker, Billerica, MA, USA) and allowed to evaporate to dryness at room temperature. Spectra were acquired in positive reflectron mode, using an acceleration voltage of 25 kV. Acquisition was performed in automated mode, using the Autoexecute software (Bruker, Billerica, MA, USA). A total of 1000 spectra, collected in 50-shot series at different positions of the sample spot were averaged for each sample. A mixture of standard peptides of known molecular mass in the range from 750–3500 Da (Bruker) was used for external calibration of the mass spectra.
To evaluate RAD16-I trypsin degradation, we incubated the peptide with trypsin with or without the previous denaturation step (incubation at 90 °C for 10 min). Thus, we incubated the RAD16-I samples with trypsin at 37 °C for different periods of time, and at each timepoint we mixed the reaction product with the α-cyano-4-hydroxy-cinnamic acid matrix and let the sample dry. Finally, samples were analyzed by MALDI. […] Furthermore, small peaks with m/z 1642 and 1558 could be detected, which may correspond to the peptide chain without one amino acid residue, an alanine and an arginine, respectively. These peptides are most likely impurities from the RAD16-I peptide synthesis.
We next aimed to determine if the structural changes observed by CD after denaturing RAD16-I (Figure 2) had any influence on proteolytic degradation. For that, peptide stock solution was diluted to 50 µM and then denatured or not for 10 min at 90 °C. Then, trypsin was added and incubated at 37 °C for different periods of time. The proteolytic reaction was inactivated by boiling the samples, and samples were finally mixed with the matrix and MALDI spectra were acquired. […] Moreover, no differences between untreated and thermally treated samples were detected.
We hypothesized that these unexpected results were due to an inefficient […] of trypsin when MALDI samples were prepared, in which trypsin was inactivated by boiling the samples. […] In this case, the samples were taken and immediately mixed with the MALDI-TOF matrix and evaporated on the sample holder.

trypsin [2] = test: trypsin in water, molar ratio 1000:1 (peptide:enzyme); untreated (non-denatured) RAD16-I; details: 37 °C, up to 30 min
trypsin [3] = test: trypsin in water, molar ratio 1000:1 (peptide:enzyme); RAD16-I denatured for 10 min at 90 °C before trypsin; details: 37 °C, up to 30 min
[4] = Thermal stability of secondary structure by circular dichroism; format: physicochemical
Experimental: Circular dichroism studies were performed on a JASCO-810 spectropolarimeter equipped with a Peltier system. RAD16-I samples (commercially available as PuraMatrix^TM, 354250, Corning, Corning, NY, USA) were diluted from a peptide stock solution (1% in water, 5.38 mM) in deionized water to a final concentration of 25, 50 and 75 µM and allowed to equilibrate at 20 or 90 °C for 10 min prior to analysis. CD data were acquired in a range from 195–240 nm at a band width of 1 nm and scan speed of 20 nm/s.
As a self-assembling peptide, RAD16-I is composed of repeating units of hydrophilic and hydrophobic amino acids, in which the charged residues alternate positive and negative charges, forming a β-sheet structure in aqueous solutions (Figure 1). This characteristic sequence is the one responsible for the self-assembly of the peptide molecules into a hydrogel, formed by a network of interweaving nanofibers from 10–20 nm in diameter and 50–200 nm in pore size and, thus, the applicability of the material as a scaffold in biomedical applications. Circular dichroism (CD) studies were performed to characterize the RAD16-I peptide structure. As a peptide with a β-sheet secondary structure, RAD16-I circular dichroism spectrum at room temperature (20 °C) presented a minimum molar ellipticity at 218 nm, which represents the β-sheet content, and a maximum of approximately 195 nm, which corresponds to the backbone twist of the peptide in the β-sheet configuration [38]. […] This spectrum was also maintained when the peptide was incubated at 40 °C.

[5] = Thermal denaturation of nanofibers imaged by AFM; format: physicochemical; details: 100 µM in water, AFM on mica
Experimental: (§1) To image the thermal denaturation of the self-assembling peptide, RAD16-I samples were diluted in water from a stock solution (5.38 mM) to a final concentration of 100 µM. The thermal treatment consisted of subjecting the sample to a 90 °C incubation for 10 min. Then, 1 µL of sample was deposited onto freshly cleaved mica (Grade V5 mica, Structure Probe Inc., 01804-CA, West Chester, PA, USA), rinsed twice with Milli-Q water and observed under the AFM. For RAD16-I degradation experiments, samples were prepared as follows: RAD16-I was diluted in water from a stock solution at a final concentration of 100 µM. For thermal treated samples, a 10 min denaturation step (incubation at 90 °C) was performed prior to the enzymatic degradation. Samples were cooled at room temperature and trypsin (Merck, T1426) was added at a 1:1000 molar ratio (enzyme:peptide). Samples (1 µL) were taken at 10 and 60 min and were deposited onto freshly cleaved mica, rinsed twice with Milli-Q water, air dried and scanned under the AFM.
AFM images were obtained with a silicon-scanning probe (AC240-TS, Asylum Research) with a resonance frequency of 70 KHz, spring constant 2 N/m, tip curvature radius <10 nm and 240 μm length. Images were obtained with a Multimode AFM microscope (Nanoscope IIIa, Digital Instruments, Santa Barbara, CA, USA) operating in TappingMode. […]

trypsin [6] = molecular target: T1, trypsin; test: Trypsin degradation of RAD16-I nanofibers imaged by AFM; format: in vitro ADME; details: RAD16-I 100 µM in water, AFM on mica
Experimental: as §1
AFM images were obtained with a silicon-scanning probe (AC240-TS, Asylum Research) with a resonance frequency of 70 KHz, spring constant 2 N/m, tip curvature radius <10 nm and 240 μm length. Images were obtained with a Multimode AFM microscope (Nanoscope IIIa, Digital Instruments, Santa Barbara, CA, USA) operating in TappingMode. AFM scans were taken at a resolution of 512 × 512 pixels and produced topographic images of samples, whose brightness of features increased as a function of height. Typical scanning parameters were as follows: tapping frequency 75 kHz, RMS amplitude before engagement 1–1.5 V, setpoint 0.7–1 V, integral and proportional gains from 0.3–0.6 and 0.4–0.6, respectively, and scan rate 1.51 Hz.
Because MALDI spectra results indicated peptide proteolysis upon trypsin treatment (Figure 4), we expected to detect structural changes in the peptide using AFM analysis. RAD16-I samples incubated with trypsin were taken at 10 and 60 min and directly spotted into freshly cleaved mica. Then the mica was rinsed with deionized water, dried and observed under the AFM. […]

Substance: ADAR [theoretical trypsin digestion fragment of RAD16-I]
- Peak Presence in MALDI Spectra (trypsin [1]; 37 °C, MALDI-TOF): +

Substance: ADARADA-NH2 [theoretical trypsin digestion fragment of RAD16-I]
- Peak Presence in MALDI Spectra (trypsin [1]; 37 °C, MALDI-TOF): +

Substance: ADARADARADARADA-NH2 [theoretical trypsin digestion fragment of RAD16-I]
- Peak Presence in MALDI Spectra (trypsin [1]; 37 °C, MALDI-TOF): −

Substance: AcN-RADARADARADARADA-CONH2
- fragment found (trypsin [2]): AcN-RADAR, 1 min; also recorded: AcN-RADARADAR, 1 min; also recorded: AcN-RADARADARADAR, 1 min; also recorded: ADAR, 1 min; also recorded: ADARADARADA-CONH2, 1 min; also recorded: ADARADA-CONH2, 1 min; also recorded: ADARADARADAR, 1 min; also recorded: ADARADAR, 1 min
- fragment found (trypsin [3]): AcN-RADARADAR, 1 min; also recorded: AcN-RADARADARADAR, 1 min; also recorded: ADAR, 1 min; also recorded: ADARADARADA-CONH2, 1 min; also recorded: ADARADA-CONH2, 1 min; also recorded: ADARADARADAR, 1 min; also recorded: ADARADAR, 1 min; also recorded: AcN-RADAR, 1 min

Substance: AcN-RADARADARADARADA-CONH2 [RAD16-I, self-assembling amphiphilic peptide scaffold, commercially available as PuraMatrix (1% in water)]
- thermal denaturation of concentrated solutions by CD ([4]; 5 mg/mL in water, 2.9 mM, incubated at 20 or 90 °C for 10 min, then diluted to 25 µM to record spectra): thermal denaturalization was not observed
- CD spectrum / secondary structure at 20 °C ([4]; 25, 50 and 75 µM in deionized water, 20 °C, 10 min equilibration, CD 195-240 nm): characteristic β-sheet spectrum
- CD β-sheet spectrum at 40 °C ([4]; 25, 50 and 75 µM in deionized water, 40 °C): maintained
- CD secondary structure at 90 °C, diluted samples ([4]; 25, 50 and 75 µM in deionized water, 90 °C, 10 min): structural transition from β-sheet to random coil
- reversibility of the β-sheet to random coil shift ([4]; diluted samples after heating at 90 °C, kept at room temperature): irreversible at room temperature for at least a week
- nanofiber network by AFM, thermally treated samples ([5]; 90 °C for 10 min): significantly less dense
- nanofiber structure by AFM, untreated samples ([5]; room temperature): dense network of long nanofibers
- nanofibers after trypsin incubation, thermally treated samples, 10 min (trypsin [6]; 90 °C 10 min then cooled, trypsin 1:1000 enzyme:peptide, 10 min): only the presence of short fibers was detected
- nanofibers after trypsin incubation, thermally treated samples, 60 min (trypsin [6]; 90 °C 10 min then cooled, trypsin 1:1000 enzyme:peptide, 60 min): most of the fibers had disappeared
- nanofibers after trypsin incubation, untreated (RT) samples, 10 min to 60 min (trypsin [6]; trypsin 1:1000 enzyme:peptide molar ratio): slight change in nanofiber density
- Peak Presence in MALDI Spectra (trypsin [1]; 37 °C, MALDI-TOF): +
- peak belonging to RAD16-I (m/z 1712) after incubation with trypsin (trypsin [1]; peptide 50 µM, trypsin, 37 °C, 1 min or 30 min, reaction stopped by boiling, MALDI-TOF, regardless of incubation time, no difference between untreated and thermally treated): significantly reduced
- disappearance of RAD16-I peak (m/z 1713) upon trypsin treatment, denatured versus untreated samples (trypsin [1]; thermally denatured (90 °C, 10 min) samples compared with untreated, MALDI-TOF, Figure 4h): much faster
- degradation of the peptide by trypsin (m/z 1713 peak) (trypsin [1]; untreated and thermally treated samples, taken and immediately mixed with MALDI-TOF matrix and evaporated (no boiling)): very fast

Second part, the substance after the results:

- Peak Presence in MALDI Spectra (trypsin [1]; 37 °C, MALDI-TOF): +
Substance: ADARADAR [theoretical trypsin digestion fragment of RAD16-I]

- Peak Presence in MALDI Spectra (trypsin [1]; 37 °C, MALDI-TOF): +
Substance: ADARADARADA-NH2 [theoretical trypsin digestion fragment of RAD16-I]

- Peak Presence in MALDI Spectra (trypsin [1]; 37 °C, MALDI-TOF): +
Substance: ADARADARADAR [theoretical trypsin digestion fragment of RAD16-I]

- Peak Presence in MALDI Spectra (trypsin [1]; 37 °C, MALDI-TOF): +
Substance: AcN-RADAR [theoretical trypsin digestion fragment of RAD16-I]

- Peak Presence in MALDI Spectra (trypsin [1]; 37 °C, MALDI-TOF): +
Substance: AcN-RADARADAR [theoretical trypsin digestion fragment of RAD16-I]

- Peak Presence in MALDI Spectra (trypsin [1]; 37 °C, MALDI-TOF): +
Substance: AcN-RADARADARADAR [theoretical trypsin digestion fragment of RAD16-I]
